In article PMC11858624, “Antioxidant and Tyrosinase-Inhibitory Activities and Biological Bioactivities of Flavonoid Derivatives from Quercus mongolica Pollen” (Molecules, 2025):

Experiments:
[1] = DPPH radical scavenging antioxidant assay; settings: for IC50: DPPH radical scavenging, 10 min incubation, PC = positive control ascorbic acid; for DPPH scavenging activity: at a concentration of 100 µM
Method: The antioxidant properties of compounds 1–18 isolated from the pollen of Q. mongolica were assessed through DPPH assay.
The radical scavenging activity of DPPH (Sigma-Aldrich) was hired for the antioxidant activity. For each assay, 10 mM of each compound isolated from the pollen of Q. mongolica (1 µL) was evaluated, followed by 49 µL of MeOH in each well. Subsequently, 50 µL of 0.3 mM DPPH solution (Sigma-Aldrich) was added. The final concentration was tested to 0.1 mM. The mixture was incubated for 10 min, and antioxidant activity was evaluated by measuring UV at 550 nm using a Dynatech MR 500 plate reader. […]

[2] = target: mushroom tyrosinase (Agaricus bisporus, UniProt C7FF04); assay: Tyrosinase inhibition assay (dopachrome formation, absorbance at 490 nm); format: biochemical; settings: at a concentration of 100 µM
Sequence of mushroom tyrosinase (C7FF04 1-392): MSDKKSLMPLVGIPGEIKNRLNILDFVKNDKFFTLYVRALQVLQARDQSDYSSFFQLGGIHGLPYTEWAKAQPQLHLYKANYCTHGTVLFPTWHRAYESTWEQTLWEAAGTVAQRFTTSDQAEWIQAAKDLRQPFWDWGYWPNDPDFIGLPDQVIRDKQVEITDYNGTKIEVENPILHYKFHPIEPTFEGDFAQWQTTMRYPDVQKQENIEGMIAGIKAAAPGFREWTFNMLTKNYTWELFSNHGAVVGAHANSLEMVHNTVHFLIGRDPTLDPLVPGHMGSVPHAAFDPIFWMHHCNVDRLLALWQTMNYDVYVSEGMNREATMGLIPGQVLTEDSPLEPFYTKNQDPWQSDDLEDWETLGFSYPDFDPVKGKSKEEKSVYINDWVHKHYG
Sequence of mushroom tyrosinase (G1K3P4 1-150 partner): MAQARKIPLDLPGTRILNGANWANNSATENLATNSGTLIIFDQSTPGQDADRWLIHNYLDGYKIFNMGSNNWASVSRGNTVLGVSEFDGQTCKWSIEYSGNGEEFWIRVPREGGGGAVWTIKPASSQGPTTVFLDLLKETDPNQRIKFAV
Method: Tyrosinase is a crucial enzyme in melanin synthesis, participating as an oxidase in the initial steps of melanin formation.
Evaluation of tyrosinase-inhibitory activity was conducted using mushroom tyrosinase (Sigma-Aldrich). For each test, 10 mM of each compound isolated from the pollen of Q. mongolica (1 µL) was evaluated. A 50 µL portion of 1 mM tyrosine (Sigma-Aldrich) dissolved in phosphate-buffered saline was introduced into each well, followed by a 5 min incubation period. Mushroom tyrosinase was prepared to a final concentration of 0.1 U/mL in phosphate-buffered saline, and 49 µL of the prepared enzyme solution was added to the wells, resulting in a compound concentration of 0.1 mM. The mixture underwent a 15 min incubation, after which the production of dopachrome was evaluated by recording the absorbance at 490 nm using a Dynatech MR 500 plate reader (Dynatech, Charlottesville, VA, USA). […] The percentage inhibition for each sample was determined at concentrations of […]. The IC50 value was calculated as the concentration of the compound required to achieve 50% inhibition of tyrosinase activity.

IC50 [1] | SMILES | DPPH scavenging activity [1] | inhibition at 100 µM [2]
34.3 µM | O=c1c(OC2OC(CO)C(O)C(O)C2OC2OC(CO)C(O)C(O)C2O)c(-c2ccc(O)c(O)c2)oc2cc(O)cc(O)c12 (stereo not shown) [Compound 2, quercetin 3-sophoroside] | over 90% | 
> 100 µM | O=C1C[C@@H](c2ccc(O)cc2)Oc2cc(O)cc(O)c21 [Compound 17, naringenin] |  | 
> 100 µM | O=c1cc(-c2ccc(O)cc2)oc2cc(O)cc(O)c12 [Compound 15, apigenin] |  | 
> 100 µM | COc1cc(-c2oc3c(OC)c(O)cc(O)c3c(=O)c2OC2OC(CO)C(O)C(O)C2O)ccc1O (stereo not shown) [Compound 11, limocitrin 3-glucoside] |  | 
> 100 µM | COc1cc(-c2oc3cc(O)cc(O)c3c(=O)c2OC2OC(CO)C(O)C(O)C2OC2OC(C)C(O)C(O)C2O)ccc1O (stereo not shown) [Compound 3, calendoflavoside] |  | 
18.4 µM | O=c1c(OC2OC(CO)C(O)C(O)C2OC2OCC(O)C(O)C2O)c(-c2ccc(O)c(O)c2)oc2cc(O)cc(O)c12 (stereo not shown) [Compound 5, quercetin 3-sambubioside] | over 90% | 
> 100 µM | O=c1c(O[C@@H]2O[C@H](CO)[C@@H](O)[C@H](O)[C@H]2O)c(-c2ccc(O)cc2)oc2cc(O)cc(O)c12 [Compound 7, astragalin] |  | 
> 100 µM | COc1cc(-c2oc3cc(O)cc(O)c3c(=O)c2OC2OC(COC3OCC(O)C(O)C3O)C(O)C(O)C2OC(C)=O)ccc1O (stereo not shown) [Compound 1, mongolinodoside A] |  | 
52.3 µM | COc1cc(-c2oc3c(OC)c(O)cc(O)c3c(=O)c2O)ccc1O [Compound 14, limocitrin] | over 90% | 
> 100 µM | COc1cc(-c2oc3cc(O)cc(O)c3c(=O)c2OC2OC(COC3OCC(O)C(O)C3O)C(O)C(O)C2O)ccc1O [Compound 6, Isorhamnetin 3-O-β-D-xylopyranosyl (1→6)-β-D-glucopyranoside] |  | 
> 100 µM | COc1ccc(-c2coc3cc4c(c(O)c3c2=O)C=CC(C)(C)O4)cc1 [Compound 18, 4′-methylalpinumisoflavone] |  | 
28.5 µM | O=C1O[C@H]([C@@H](O)CO)C(O)=C1O [ascorbic acid, reference compound] |  | 
28.5 µM | O=c1c(O[C@@H]2O[C@H](CO)[C@@H](O)[C@H](O)[C@H]2O)c(-c2ccc(O)c(O)c2)oc2cc(O)cc(O)c12 [Compound 8, isoquercetin] | over 90% | 
> 100 µM | O=c1c(OC2OC(CO)C(O)C(O)C2OC2OCC(O)C(O)C2O)c(-c2ccc(O)cc2)oc2cc(O)cc(O)c12 (stereo not shown) [Compound 4, leucoside] |  | 
> 100 µM | COc1c(O)cc(O)c2c(=O)c(OC3OC(CO)C(O)C(O)C3O)c(-c3ccc(O)cc3)oc12 (stereo not shown) [Compound 10, 8-methoxykaempferol 3-glucoside] |  | 
> 100 µM | COc1cc(-c2oc3cc(O)cc(O)c3c(=O)c2OC2OC(CO)C(O)C(O)C2O)ccc1O (stereo not shown) [Compound 9, isorhamnetin 3-glucoside] |  | 

SMILES | IC50 [1] | DPPH scavenging activity [1] | inhibition at 100 µM [2]
O=c1cc(-c2ccc(O)c(O)c2)oc2cc(O)cc(O)c12 [Compound 16, luteolin] | 9.7 µM | over 90% | > 50%
COc1cc(-c2oc3cc(O)cc(O)c3c(=O)c2O)ccc1O [Compound 13, isorhamnetin] | 25.5 µM | over 90% | 
O=c1c(O)c(-c2ccc(O)cc2)oc2cc(O)cc(O)c12 [Compound 12, kaempferol] | 42.4 µM | over 90% | > 70%
